Results from US12396948B2, “Pharmaceutical compositions for the treatment of ophthalmic conditions” (Rhodes Technologies, priority 2017, dated 2025).
Structures can show the parent of a compound that is named as a salt.

Legend:
[1] = cited from earlier work
[2] = Impurity profile of antioxidant excipient solutions (Example 42); assay type: physicochemical; details: for Impurity (% Area) Total / Impurity (% w/w) Total: excipient solution; for Impurity (% w/w) Total: converted to levels corresponding to antioxidant concentrations in the dronabinol formulations
Female C57BL/6J mice [3] = assay: Conscious mouse IOP after single topical drop (Example 57); assay type: in vivo; details: for maximal IOP effect: conscious mice
Method: Female C57BL/6J mice (Jackson Laboratories, Bar Harbor, ME; age 2-3 months) were kept in 12 h light/12 h dark conditions (lights on 0600 h) and fed with standard chow. All experimental procedures were conducted in accordance with the ARVO Statement for the Use of Animals in Ophthalmic and Vision Research, and the University of North Texas Health Science Center Institutional Animal Care and Use Committee Regulations and Guidelines.
Dronabinol ophthalmic solutions (0.05% and 0.5%) and the corresponding vehicle were provided by Rhodes Technologies. Timolol maleate 0.5% (Hi. Tech Pharmacal) was purchased. Formulation AE10C-B was prepared as described above (Table 44).
The 2-tailed unpaired Student's t-test was used for comparison of results at the same time point between two study groups. P values of less than 0.05 were considered significant. All data are presented as mean±SEM.

mouse = assay: Repeated dosing study on IOP lowering effects (Example 58); assay type: in vivo; details: for maximum IOP reduction: twice daily 7 days, vs contralateral untreated eye
Method: Study protocol is similar to Dose-Response Relationship Study described above, except that the animals are divided into three groups (as specified below). A single 5 μL drop was instilled topically onto one eye of each mouse twice daily starting at time 0 of Day 1.
The contralateral eye was untreated. IOP of both eyes was measured at −1 h (baseline), 2 h, 4 h, 6 h, 8 h, 12 h. […] In addition to IOP measurement, animals were evaluated for possible ocular and gross systemic adverse effects. • Group 1: Vehicle • Group 2: Dronabinol (optimal concentration determined in studies above) • Group 3: Timolol (0.5%) Results: The results are presented in FIGS. 28 and 29, which illustrate comparison of IOP effects of the Dronabinol formulations, vehicle, and Timolol. The formulations were administered twice daily at 8-9 AM (Time 0) and 4-5 PM starting Day 1 till Day 7. The upper panel reports IOP values at the indicated time points after dosing (IOP at Time 0 was obtained immediately prior to the morning dosing) of Days 1, 4, and 7. The bottom panel represents % IOP change compared to the contralateral untreated eye, whose IOP defines 100%. Data are shown as mean±SEM.

Female C57BL/6J mice [4] = assay: Mouse aqueous humor dynamics by constant flow infusion (Example 57); details: 0.5% emulsion
From the text: Briefly, immediately following bilateral tonometry in anesthetized animals, both eyes received a drop of proparacaine HCl (0.5%) for topical anesthesia, and both anterior chambers were cannulated with a 30G needle (one per eye) connected to previously calibrated BLPR-2 flow-through pressure transducers (World Precision Instruments (WPI), Sarasota, FL) for the continuous determination of pressure. A drop of PBS was also given to each eye topical ocular to prevent corneal drying. The opposing end of each transducer was connected to a 3-way valve, which in turn was connected to: (a) a 50 FAL glass microsyringe (Hamilton Company, Reno, NV) filled with sterile PBS loaded into an SP101i microdialysis infusion pump (WPI), and (b), an open ended, variable height manometer. Signals from the pressure transducers were passed via a TBM4M Bridge Amplifier (WPI) and a Lab-Trax analog-to-digital converter (WPI) to a computer. Data were recorded using LabScribe2 software (WPI).
The manometer was closed to the circuit and eyes were infused at a flow rate of 0.1 μL/min. When pressure had stabilized, pressure measurements were recorded, and flow rate was increased sequentially to 0.2, 0.3, 0.4, and 0.5 μL/min. Three stabilized pressures (spaced 5 min apart) at each flow rate were recorded. Aqueous outflow facility (C) in each eye of each animal was calculated as the reciprocal of the slope of a plot of Mean Stabilized Pressure as ordinate against Flow Rate as abscissa.
Episcleral venous pressure (Pe) was estimated using the blood reflux method. Briefly, following anterior chamber cannulation, the manometer was opened to the circuit, manometric pressure was set to equal pre-cannulation (anesthetized) TOP, and then manometric pressure was lowered incrementally (at the rate of 1 mmHg/min) until the point at which blood was seen (using a dissection microscope under 30× magnification) to reflux into the scleral collector channels and then Schlemm's canal. The manometric pressure at which Schlemm's canal was seen to fill with refluxed blood was regarded as Pe.
After completion of the above measurements, animals were euthanized by anesthetic overdose and, 20 min following euthanasia, C was measured again. Thus values for Clive and C dead were obtained. Following euthanasia, both aqueous humor formation rate (Fin) and Pe are equal to zero, and via algebraic rearrangement of the modified Goldmann equation {IOP=[(Fin−Fu)/C]+Pe}, values for Fu were thus calculated for each individual perfusion rate and corresponding TOP. The mean of those resultant 5 values was reported as Fu.
Aqueous Humor Formation Rate (Fin) was calculated for each eye by further algebraic rearrangement of the modified Goldmann equation: Fin=[C×(IOP−Pe)]+Fu.

In the case of CCCCCCCCCCCCCCCC(=O)OC[C@H](O)[C@H]1OC(=O)C(O)=C1O [Ascorbyl Palmitate], the “Solub. in Water” value [1] is listed as 0.07 mg/L.

For O=C(O)CC(O)C(=O)O (centres unmarked) [Malic Acid], the “Solub. in Water” value [1] is given as 59.2 g/100 mL water.

In the case of O=S([O-])S(=O)(=O)[O-].[Na+].[Na+] [Sodium Metabisulfite], the “Solub. in Water (in words)” value [1] is listed as “Freely”.

In the case of COc1ccc(O)c(C(C)(C)C)c1 [Butylated Hydroxyanisole (BHA)], the “Solub. in Water (in words)” value [1] is given as “Insoluble”.

In the case of O=C(O)/C=C/C(=O)O [Fumaric Acid], the “Solub. in Water” value [1] is listed as 0.007 mg/L.

In the case of CC(=O)OC/C=C(C)/C=C/C=C(C)/C=C/C1=C(C)CCCC1(C)C [Vitamin A], the “RRT 0.83 in testing of excipients” value ([2]; 0.5% Vitamin A) was about 0.5 % w/w.

For OCC(O)CS (centres unmarked) [Monothioglycerol], the “Solub. in Water (in words)” value [1] is listed as “Slightly”.

In the case of O=S=O [Sulfur Dioxide], the “Solub. in Water” value [1] is listed as 8.5 g/100 mL water.

In the case of CCCCCc1cc(O)c2c(c1)OC(C)(C)[C@@H]1CCC(C)=C[C@@H]21 [Dronabinol, (−)-trans-Δ^9-tetrahydrocannabinol], the “IOP reduction at 24 h after treatment” value (Female C57BL/6J mice [3]; 0.05% and 0.5%, single 5 μL drop) was “still significant”, the “ocular, systemic, or behavioral adverse effects” value (Female C57BL/6J mice [3]; 0.05% and 0.5%, single topical drop) was “No ocular, systemic, or behavioral adverse effects were observed” and the “maximal IOP effect” value (Female C57BL/6J mice [3]; 0.05% ophthalmic solution, single 5 μL drop, @ 6 h) was −22.3%. The “maximal IOP effect” value (Female C57BL/6J mice [3]; 0.5% ophthalmic solution, single 5 μL drop, @ 2 h) was −25.8%, the “maximum IOP reduction” value (mouse; 0.005% formulation) was 19.8% and the “maximum IOP reduction” value (mouse; 0.015% formulation) was 25.7%. The “maximum IOP reduction” value (mouse; 0.05% formulation) was 33.2%, the duration of action (mouse; 0.05%, lowered baseline IOP at Days 4 & 7) was over 16 h and the “tachyphylaxis or adverse effect” value (mouse; 7-day twice daily dosing, 0.005%, 0.015%, 0.05%) was “No tachyphylaxis or adverse effect was observed”. The ocular adverse effect (Female C57BL/6J mice [4]) was “No ocular adverse effect was observed”, the “IOP lowering in anesthetized animals” value (Female C57BL/6J mice [4]; 2 h after treatment) was 29.9% and the “aqueous humor formulation rate, change” value (Female C57BL/6J mice [4]; 2 h after treatment) was −21.6%. For the same compound, the “aqueous outflow facility, increase” value (Female C57BL/6J mice [4]; 2 h after treatment) was 54.5% and the “episcleral venous pressure, change” value (Female C57BL/6J mice [4]; 2 h after treatment) was −26.8%.

For O=S([O-])S(=O)(=O)[O-].[K+].[K+] [Potassium Metabisulfite], the “Solub. in Water” value [1] is listed as 49.5 g/100 mL water.

For CC(C)(C)NC[C@H](O)COc1nsnc1N1CCOCC1 [Timolol, Timolol maleate], the “effect on mouse IOP” value (Female C57BL/6J mice [3]; 0.5%, positive control) was “lowered mouse TOP as expected”, the “prolonged IOP reduction (baseline IOP at Days 4 & 7)” value (mouse; 0.5%, twice daily) was “did not produce this prolonged IOP reduction” and the “maximum IOP reduction” value (mouse; 0.5%) was 35.1%.

In the case of O=S([O-])[O-].[Na+].[Na+] [Sodium Sulfite], the “Impurity (% Area) Total” value [2] was 0.0 % Area and the “Impurity (% w/w) Total” value [2] was 0.0 % w/w.

For Vitamin E, the “Solub. in Water (in words)” value [1] is listed as “Insoluble”.

For O=S([O-])([O-])=S.[Na+].[Na+] [Sodium Thiosulfate], the “Impurity (% Area) Total” value [2] was 0.0 % Area and the “Impurity (% w/w) Total” value [2] was 0.0 % w/w.

In the case of CCCOC(=O)c1cc(O)c(O)c(O)c1 [Propyl Gallate], the “Solub. in Water” value [1] is listed as 0.35 g/100 mL water.
